# Assay results published in patent US20230322805A1, “NOVEL PYRIMIDODIAZEPINE DERIVATIVES OR USES THEREOF” (SPARK BIOPHARMA, INC., priority 2020, published 2023).
# Columns and labels:
# PDIA3 = biological target: T1, PDIA3 (Homo sapiens, UniProt P30101); assay: TS-FITGE thermal stability shift; assay type: binding; parameters: endogenous in cells; host or cells: HEK293 BiFC-tau cells (TS-FITGE, CETSA, PEG-maleimide assay); conditions: 10 μM, 200 nM thapsigargin, 3 hours, HEK293 BiFC-tau cells
# T1 sequence (P30101 25-505): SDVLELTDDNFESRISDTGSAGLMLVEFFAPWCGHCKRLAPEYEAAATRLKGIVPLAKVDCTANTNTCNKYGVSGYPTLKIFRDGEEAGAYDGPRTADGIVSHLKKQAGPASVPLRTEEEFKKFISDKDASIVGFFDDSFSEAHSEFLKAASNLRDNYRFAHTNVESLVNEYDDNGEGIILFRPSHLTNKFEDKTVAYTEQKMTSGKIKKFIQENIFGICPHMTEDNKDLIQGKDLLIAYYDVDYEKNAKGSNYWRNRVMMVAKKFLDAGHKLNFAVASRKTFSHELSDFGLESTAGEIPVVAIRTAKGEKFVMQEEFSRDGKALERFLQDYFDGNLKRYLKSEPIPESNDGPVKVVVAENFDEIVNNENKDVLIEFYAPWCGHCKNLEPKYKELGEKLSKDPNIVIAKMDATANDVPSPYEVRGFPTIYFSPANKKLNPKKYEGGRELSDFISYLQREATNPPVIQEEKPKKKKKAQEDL
# Experimental: (§1) HEK293 BiFC-tau cells were treated with dimethylsulfoxide (DMSO, 0.1%) and a compound according to the present invention (10 μM) in the presence of thapsigargin (200 nM) for 3 hours. The cell suspension was heated at the indicated temperature range for 3 minutes and then at 25° C. for 3 minutes. The heated cells were washed with PBS and resuspended in lysis buffer A (0.4% NP-40 in PBS supplemented with protease inhibitor cocktail). For cell lysis, cell suspensions were freeze-thawed in liquid nitrogen three times. The cell lysate was washed by centrifugation at 20000 g, 4° C. for 20 minutes. Protein concentration of the soluble fraction was quantified by Pierce BCA protein assay. After precipitating 50 μg of protein with cold acetone, it was centrifuged at […] and 4° C. for 7 minutes. The residual pellet was resuspended in 10 μl of conjugation buffer (30 mM Tris-HCl at pH 8.6, 30 mM thiourea, 7 M urea and 4% w/v CHAPS). 1 μl of 0.4 mM Cy2-N-hydroxysuccinimide(Cy2-NHS) (for DMSO-treated group), Cy3-NHS (for SB1607-treated group) or Cy5-NHS (for SB1617-treated group) was mixed with the protein and incubated at 4° C. for 45 minutes. […] Protein spot locations and fluorescence signals were analyzed with DeCyder 2D software ver. […]
# DNAJC3 = biological target: T2, DNAJC3 (Homo sapiens, UniProt Q13217); assay: TS-FITGE thermal stability shift; assay type: binding; parameters: endogenous in cells; host or cells: HEK293 BiFC-tau cells (TS-FITGE, CETSA); conditions: 10 μM, 200 nM thapsigargin, 3 hours, HEK293 BiFC-tau cells
# T2 sequence (Q13217 32-504): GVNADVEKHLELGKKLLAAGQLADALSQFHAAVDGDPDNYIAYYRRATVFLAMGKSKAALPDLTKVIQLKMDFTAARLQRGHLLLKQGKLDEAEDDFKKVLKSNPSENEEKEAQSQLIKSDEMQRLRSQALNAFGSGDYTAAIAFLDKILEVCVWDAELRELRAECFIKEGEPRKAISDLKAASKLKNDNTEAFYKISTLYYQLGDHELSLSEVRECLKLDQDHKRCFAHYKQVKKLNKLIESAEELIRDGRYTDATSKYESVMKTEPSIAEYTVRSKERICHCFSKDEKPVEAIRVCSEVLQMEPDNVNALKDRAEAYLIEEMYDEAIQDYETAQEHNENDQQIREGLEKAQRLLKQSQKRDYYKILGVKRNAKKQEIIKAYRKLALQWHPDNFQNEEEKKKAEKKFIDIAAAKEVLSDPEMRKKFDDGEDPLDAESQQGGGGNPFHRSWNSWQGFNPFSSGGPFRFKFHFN
# Experimental: as §1
smiles,measurement,setting,value
CN(Cc1ccc(Cl)cc1)c1ncnc2c1[C@@H]1OC[C@H](CN2)N1S(=O)(=O)c1ccc([N+](=O)[O-])cc1 [Compound 117],thermal stability of protein (TS-FITGE),PDIA3,thermal stability of the protein was improved
same,thermal stability of protein (TS-FITGE),DNAJC3,thermal stability of the protein was improved
